Reference: BigSolDB 2.1

NC(=O)c1cccnc1
solubility (mole fraction)
Details | in acetone | in ethanol | in ethyl acetate | in isobutanol | in isopropanol | in methanol | in methyl acetate | in n-butanol | in n-butyl acetate | in n-propanol
283.15 K | 0.0116 | 0.0263 | 0.00797 | 0.0222 | 0.0187 | 0.0541 | 0.00929 | 0.0235 | 0.00936 | 0.0219
288.15 K | 0.0134 | 0.032 | 0.00871 | 0.0248 | 0.023 | 0.0643 | 0.0101 | 0.0274 | 0.00955 | 0.0266
293.15 K | 0.0164 | 0.0374 | 0.01 | 0.0292 | 0.0281 | 0.0748 | 0.0117 | 0.0315 | 0.01 | 0.0321
298.15 K | 0.0191 | 0.0444 | 0.0112 | 0.0345 | 0.0328 | 0.0876 | 0.0135 | 0.0362 | 0.0107 | 0.0378
303.15 K | 0.0234 | 0.0537 | 0.0129 | 0.0392 | 0.0396 | 0.102 | 0.0156 | 0.0416 | 0.0114 | 0.045
308.15 K | 0.0286 | 0.0638 | 0.0145 | 0.0456 | 0.048 | 0.121 | 0.0179 | 0.0482 | 0.0124 | 0.0542
313.15 K | 0.0342 | 0.0766 | 0.0163 | 0.0544 | 0.0573 | 0.141 | 0.0209 | 0.0566 | 0.0135 | 0.0647
318.15 K | 0.0392 | 0.0912 | 0.0182 | 0.0637 | 0.0673 | 0.166 | 0.0235 | 0.0664 | 0.0153 | 0.0766
323.15 K | 0.0472 | 0.11 | 0.0213 | 0.0754 | 0.0801 | 0.192 | 0.0272 | 0.0774 | 0.0181 | 0.0924
